In ChEMBL document CHEMBL1139650, “In silico fragment-based discovery of DPP-IV S1 pocket binders” (Bioorg Med Chem Lett, 2006):

Target: Dipeptidyl peptidase 4 (Homo sapiens, UniProt P27487)
Assay: Inhibition of DPP4

Dipeptidyl peptidase 4, sequence (P27487 whole entry): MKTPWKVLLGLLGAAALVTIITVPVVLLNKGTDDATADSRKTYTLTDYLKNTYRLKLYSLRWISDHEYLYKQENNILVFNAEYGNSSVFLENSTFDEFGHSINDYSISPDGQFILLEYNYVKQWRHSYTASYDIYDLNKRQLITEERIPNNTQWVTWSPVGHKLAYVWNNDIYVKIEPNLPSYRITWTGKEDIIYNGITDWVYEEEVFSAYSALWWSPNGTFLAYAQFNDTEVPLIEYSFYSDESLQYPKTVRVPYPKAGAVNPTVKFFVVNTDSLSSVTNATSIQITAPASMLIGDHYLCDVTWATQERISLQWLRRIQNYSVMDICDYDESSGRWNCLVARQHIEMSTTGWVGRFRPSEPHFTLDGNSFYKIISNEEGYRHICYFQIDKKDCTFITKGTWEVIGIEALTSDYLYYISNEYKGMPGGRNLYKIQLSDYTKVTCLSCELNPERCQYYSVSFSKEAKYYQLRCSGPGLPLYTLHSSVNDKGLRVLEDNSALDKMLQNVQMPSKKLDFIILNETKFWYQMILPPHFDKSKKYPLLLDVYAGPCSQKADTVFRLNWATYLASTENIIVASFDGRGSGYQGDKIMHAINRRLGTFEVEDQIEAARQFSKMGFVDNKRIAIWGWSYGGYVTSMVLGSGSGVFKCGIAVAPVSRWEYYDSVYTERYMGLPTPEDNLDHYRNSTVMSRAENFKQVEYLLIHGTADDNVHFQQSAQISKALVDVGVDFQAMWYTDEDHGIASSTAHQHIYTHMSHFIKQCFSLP

Compound	IC50 [µM]
N[C@H](c1ccccc1)[C@@H](N)c1ccccc1	75
N[C@H](c1ccccc1)[C@H](N)c1ccccc1	45
